Experimental data taken from US20050019258A1, “Compound testing method” (priority 2003, published 2005).
Where two headings read alike, the source gives them in different places.

What was measured:
[1] = system: guinea-pig bladder; experiment: Ice-water test (IWT) in anaesthetised guinea-pig bladder, effect of RTX treatment; assay type: in vivo
Protocol: (§1) Anaesthesia was induced in female Dunkin-Hartley guinea-pigs (326-416 g) by exposure to 4% halothane in oxygen. A surgical level of anaesthesia was then obtained by administration of 1.2 g/kg i.p. urethane followed by 40 mg/kg α-chloralose via a catheterised jugular vein. Supplementary doses of urethane (0.05 g/kg i.v.) were given if required. Rectal temperature was maintained between 36.5 and 37° C. via a Harvard homeothermic blanket control unit and additional heating lamp. […] The trachea was cannulated and the animals artificially respired using an Ugo-Basile rodent ventilator. A carotid arterial blood sample (0.3 ml) was analysed for blood gases using a GEM Premier 3000 analyser and the ventilation volume adjusted, with air intake enriched with O2 if necessary, to set the level of blood PO2>70 mmHg, PCO2<40 mmHg and pH between 7.36 and 7.46.
(§2) The urinary bladder was exposed via a midline laparotomy and a double lumen catheter inserted into the lumen through an incision in the dome. The catheter was tied in place below the flanged tip of the outer tubing, followed by closure of the abdominal incision. […] The amplified EUS electromyogram (EUS EMG), the integrated EUS EMG and bladder pressure signals were recorded using Spike2 software (Cambridge Electronic Design). […]

[2] = system: patients with detrusor hyperreflexia; details: 13 patients positive at baseline, cited from earlier work
[3] = system: bladder cooling reflex; details: 0.5 mM menthol in patients; cited from earlier work
[4] = system: guinea-pig bladder; experiment: Ice-water test (IWT) in anaesthetised guinea-pig bladder, effect of menthol; assay type: in vivo
Protocol: as §1, §2

[5] = system: bladder cooling reflex; details: 0.6 mM menthol in cats; cited from earlier work

Compound	desensitisation of the 3° C. induced reduction in TV ([1]; 500 nM RTX infused into bladder)	difference of TV to 3° C. vs TV for 38° C. control response before RTX ([1]; 500 nM RTX, 100 min post RTX infusion, 95% C.I. −0.51, 0.20, p>0.05)	additional patients in whom IWT became negative ([2]; at 14 days, 50 or 100 nM RTX)	number of cases with negative IWT ([2]; at 90 days post treatment, 50 or 100 nM RTX) [cases]	number of patients in whom IWT became negative ([2]; immediately after instillation of 50 or 100 nM RTX) [patients]	effect on bladder cooling reflex (shift of threshold temperature towards higher temperatures) [3]	threshold volume (TV) for micturition at 3° C. following menthol treatment ([4]; 0.6 mM menthol infused into bladder, 3° C. saline infusion, TV before menthol 1.90 ml, n=4) [mL]	difference in TV at 3° C. after menthol vs before menthol ([4]; 0.6 mM menthol, 95% C.I. −1.33, −0.57, p<0.001)	effect on bladder cooling reflex (shift of threshold temperature towards higher temperatures) [5]
C=C(C)[C@]12C[C@@H](C)[C@@]34O[C@](Cc5ccccc5)(O[C@@H]1[C@@H]3C=C(COC(=O)Cc1ccc(O)c(OC)c1)C[C@]1(O)C(=O)C(C)=C[C@@H]41)O2 [RTX, resiniferatoxin]	Desensitisation	−0.16	2	8	4				
CC1CCC(C(C)C)C(O)C1 (stereo not drawn) [menthol]						Potentiation of the bladder cooling reflex	0.95	−0.95	Potentiation of the bladder cooling reflex
